Laboratory results published in patent US20120135055A1, “Dry Powder Inhaler Formulations” (BREATH LIMITED, priority 2009, published 2012).

What was measured:
[1] = Dry Sympatec PSD analysis (particle size distribution); assay type: physicochemical; conditions: pre-storage
[2] = Effect of humidity on prolonged storage (20% RH, 48 hours; DVS, DSC, TGA, PSD, SEM); assay type: physicochemical; conditions: 20% RH for 48 hours; for DSC trace, thermal behaviour of stored sample: post-humidity treatment
Procedure: In order to evaluate the effect of humidity on prolonged storage processed BDP hydrate was subjected to 20% relative humidity (RH) for 48 hours. The sample recovered after storage was analysed by DSC, TGA, PSD and SEM. In order to evaluate the effect of humidity on prolonged storage, processed BDP heptane was subjected to 20% relative humidity (RH) for 48 hours. The sample recovered after storage was analysed by DSC, TGA, PSD and SEM.

With `CCC(=O)OCC(=O)[C@@]1(OC(=O)CC)[C@@H](C)C[C@H]2[C@@H]3CCC4=CC(=O)C=C[C@]4(C)[C@@]3(Cl)[C@@H](O)C[C@@]21C.O` [BDP hydrate, beclomethasone diproprionate] the “Particle size distribution relative to the inhalation range” value [1] was “well within the inhalation range”, the “DVS mass plot, change of mass during storage” value [2] was “considerable weight loss due to partial dehydration” and the “Stability on prolonged storage compared with anhydrous BDP” value [2] was “higher stability on prolonged storage than anhydrous BDP”. The “DSC trace, thermal behaviour of stored sample” value [2] was “no variation in the thermal behaviour”, the “Particle Size, cumulative distribution Q3 X50” value ([2]; post-storage sample) was 1.37 μ and the “Particle Size, cumulative distribution Q3 X90” value ([2]; post-storage sample) was 2.95 μ.
For `CCC(=O)OCC(=O)[C@@]1(OC(=O)CC)[C@@H](C)C[C@H]2[C@@H]3CCC4=CC(=O)C=C[C@]4(C)[C@@]3(Cl)[C@@H](O)C[C@@]21C.O` [BDP heptane, beclomethasone diproprionate], the “Particle size distribution relative to the inhalation range” value [1] was “extremely promising and within the inhalation range”, the “DSC trace, thermal behaviour of stored sample” value [2] was “no variation in the thermal behaviour” and the “Particle Size, cumulative distribution Q3 X10” value ([2]; post-storage sample) was 0.68 μ. The “Particle Size, cumulative distribution Q3 X50” value ([2]; post-storage sample) was 2.44 μ and the “Particle Size, cumulative distribution Q3 X90” value ([2]; post-storage sample) was 5.29 μ.
